Measured values from the supplement of paper PMC13380429.

What was measured:
Caco-2 [1] = assay: cell viability relative to DMSO; higher = less toxic; conditions: 72 h
Calu-3 [2] = assay: as above; conditions: 72 h
HepG2 [3] = assay: as above; conditions: 72 h
Vero E6 [4] = assay: as above; conditions: 72 h
U2OS [5] = assay: as above; conditions: 72 h
[6] = test system: A549-ACE2 infected with SARS-CoV-2; assay: cell count relative to DMSO; higher = less toxic; conditions: 24 h
Calu-3 [7] = assay: relative viability EC50 (midpoint between 100% and the lowest measured viability); higher = less toxic; conditions: 72 h
HepG2 [8] = assay: as above; conditions: 72 h
Vero E6 [9] = assay: as above; conditions: 72 h
[10] = test system: A549-ACE2 infected with SARS-CoV-2; assay: morphology score (similarity to uninfected cells); higher = more like uninfected cells; conditions: 24 h
A549-ACE2 [11] = assay: drug-induced phospholipidosis relative to tamoxifen; higher = more phospholipidosis
[12] = test system: A549-ACE2 infected with SARS-CoV-2; assay: SARS-CoV-2 infection rate relative to DMSO; higher = more infection; conditions: 24 h
Caco-2 [13] = assay: drug sensitivity score (DSS) for viability; higher = more toxic; extreme values may be limits of the assay; conditions: 72 h
Calu-3 [14] = assay: as above; conditions: 72 h
HepG2 [15] = assay: as above; conditions: 72 h
Vero E6 [16] = assay: as above; conditions: 72 h
U2OS [17] = assay: as above; conditions: 72 h
Caco-2 [18] = assay: relative viability EC50 (midpoint between 100% and the lowest measured viability); higher = less toxic; conditions: 72 h
U2OS [19] = assay: as above; conditions: 72 h
A549-ACE2 [20] = assay: phospholipidosis EC50; higher = less potent phospholipidosis inducer

Cc1csc(-c2nnc(Nc3ccc(Oc4ncccc4-c4ccnc(N)n4)cc3)c3ccccc23)c1 [AMG900]
Conditions | SARS-CoV-2 infection rate, [12] [%] | cell count, [6] [%] | cell viability, Caco-2 [1] [%] | cell viability, Calu-3 [2] [%] | cell viability, HepG2 [3] [%] | cell viability, U2OS [5] [%] | cell viability, Vero E6 [4] [%] | morphology score, [10]
1 nM | – | – | 94.6 | 104 | 101 | 93.9 | 100 | –
10 nM | – | – | 90.5 | 90.7 | 73.4 | 93.8 | 82.2 | –
100 nM | – | – | 96.1 | 92 | 76.6 | 85.5 | 80.4 | –
0.1 µM | 97 | 77 | – | – | – | – | – | 0.14
0.3 µM | 93 | 73 | – | – | – | – | – | 0.2
1000 nM | – | – | 77.3 | 77.8 | 53.6 | 82.3 | 81.7 | –
1 µM | 105 | 74 | – | – | – | – | – | -0.05
3 µM | 104 | 75 | – | – | – | – | – | -0.08
10000 nM | – | – | 65.5 | 81.4 | 2.2 | 68.2 | 75.8 | –

Conditions | drug sensitivity score | relative viability EC50 [nM]
Caco-2 [13] | 4.2 | –
Calu-3 [7] | – | > 10000
Calu-3 [14] | 3.3 | –
HepG2 [8] | – | 540
HepG2 [15] | 13.9 | –
U2OS [17] | 4.3 | –
Vero E6 [9] | – | > 10000
Vero E6 [16] | 8.5 | –

drug-induced phospholipidosis [%], A549-ACE2 [11]
Conditions | 0.3 µM | 0.833333 µM | 3.33333 µM | 6.66667 µM | 10 µM | 30 µM
24 h | 13.3 | 10.1 | 22.8 | 35.6 | 44.4 | 33.3
48 h | – | – | 27.1 | – | 34.6 | 7.09

Cc1cc(Nc2ncc(Cl)c(Nc3ccccc3S(=O)(=O)C(C)C)n2)c(OC(C)C)cc1C1CCNCC1 [ceritinib]
Conditions | SARS-CoV-2 infection rate [%] | cell count [%] | cell viability [%] | morphology score | phospholipidosis EC50 [nM]
A549-ACE2 [20], 24 h | – | – | – | – | 2940
A549-ACE2 [20], 48 h | – | – | – | – | 1790
Caco-2 [1], 1 nM | – | – | 99.3 | – | –
Caco-2 [1], 10 nM | – | – | 88.1 | – | –
Caco-2 [1], 100 nM | – | – | 107 | – | –
Caco-2 [1], 1000 nM | – | – | 83.7 | – | –
Caco-2 [1], 10000 nM | – | – | 10.1 | – | –
Calu-3 [2], 1 nM | – | – | 102 | – | –
Calu-3 [2], 10 nM | – | – | 108 | – | –
Calu-3 [2], 100 nM | – | – | 102 | – | –
Calu-3 [2], 1000 nM | – | – | 87.5 | – | –
Calu-3 [2], 10000 nM | – | – | 0.5 | – | –
HepG2 [3], 1 nM | – | – | 94.5 | – | –
HepG2 [3], 10 nM | – | – | 91.3 | – | –
HepG2 [3], 100 nM | – | – | 106 | – | –
HepG2 [3], 1000 nM | – | – | 71.4 | – | –
HepG2 [3], 10000 nM | – | – | 0.2 | – | –
U2OS [5], 1 nM | – | – | 97.7 | – | –
U2OS [5], 10 nM | – | – | 92.8 | – | –
U2OS [5], 100 nM | – | – | 97.3 | – | –
U2OS [5], 1000 nM | – | – | 86.2 | – | –
U2OS [5], 10000 nM | – | – | 5.7 | – | –
Vero E6 [4], 1 nM | – | – | 99.4 | – | –
Vero E6 [4], 10 nM | – | – | 101 | – | –
Vero E6 [4], 100 nM | – | – | 97.9 | – | –
Vero E6 [4], 1000 nM | – | – | 95.9 | – | –
Vero E6 [4], 10000 nM | – | – | 17 | – | –
[6], 0.1 µM | – | 104 | – | – | –
[6], 0.3 µM | – | 100 | – | – | –
[6], 1 µM | – | 97 | – | – | –
[6], 3 µM | – | 90 | – | – | –
[10], 0.1 µM | – | – | – | 0.01 | –
[10], 0.3 µM | – | – | – | 0.04 | –
[10], 1 µM | – | – | – | 0.56 | –
[10], 3 µM | – | – | – | 0.69 | –
[12], 0.1 µM | 110 | – | – | – | –
[12], 0.3 µM | 96 | – | – | – | –
[12], 1 µM | 65 | – | – | – | –
[12], 3 µM | 44 | – | – | – | –

Conditions | drug sensitivity score | relative viability EC50 [nM]
Caco-2 [13] | 7.7 | –
Caco-2 [18] | – | 1820
Calu-3 [7] | – | 2150
Calu-3 [14] | 7.6 | –
HepG2 [8] | – | 1440
HepG2 [15] | 9.7 | –
U2OS [17] | 7.5 | –
U2OS [19] | – | 2010
Vero E6 [9] | – | 2780
Vero E6 [16] | 5.2 | –

drug-induced phospholipidosis [%], A549-ACE2 [11]
Conditions | 0.3 µM | 0.833333 µM | 3.33333 µM | 6.66667 µM | 10 µM | 30 µM
24 h | 9.71 | 10.9 | 62 | 78.4 | 87.3 | 66.3
48 h | 12.5 | 7.38 | 84.3 | 87.6 | 93 | 69.7
72 h | 11.3 | 5.24 | 83.1 | – | – | –
